From PMC8347595, “N-Skatyltryptamines—Dual 5-HT6R/D2R Ligands with Antipsychotic and Procognitive Potential” (Molecules, 2021)
Read-outs that look alike come from different tables or passages of the source.

How the values were obtained:
[1] = Metabolic stability, incubation with mouse liver microsomes; format: in vitro ADME; details: MLMs, 50 µM, 2 h
Method: The murine liver microsomes (MLMs) were purchased from Sigma-Aldrich (St. Louis, MO, USA). To determine metabolic pathways, the tested compounds (50 µM) were incubated with 100 mM Tris-HCl buffer at 37 °C with MLMs (1 mg/mL) and NADPH Regeneration System for 2 h. Reactions were quenched with cold, pure methanol and mixtures were centrifuged 14,000 g for 15 min. The supernatants were analyzed using LCMS. The additional MS ion fragmentation of the product and the substrate were performed to determine the most probable structure of the metabolite.

Male CD1 mice = test: Spontaneous locomotor activity of mice; format: in vivo; details: i.p.; for Ambulation Scores ± SEM: 60 min, n = 5; for effect on spontaneous locomotor activity in words: all tested doses
Method: Mice were placed separately into activity cages for an acclimatization period of 30 min, then they were injected i.p. with compound 15 (0.5, 1, and 3 mg/kg) or compound 18 (0.05, 0.1, 0.5, 1, and 3 mg/kg, respectively. After a further 30 min, they were injected with saline (10 mL/kg). From this point on, the ambulation scores were measured for 60 min. The data are presented as mean ± SEM, n = 5 mice per group. Data were analyzed with one-way ANOVA and Dunnett’s post-hoc. 15: F(3,16) = 1.225, p = 0.333; 18: F(5,24) = 0.791, p = 0.567.
Animals. Male CD1 mice (Charles River, Germany) weighing 20–25 g at the time of arrival were used in behavioral experiments. Animals were kept under standard laboratory conditions (12:12 light: dark cycle, 22 ± 2 °C) with free access to food and water. Animal welfare has been regularly controlled by a veterinarian and animal welfare committee. After two weeks of acclimatization and handling, the experiments began. Experimental groups consisted of four to 10 animals, depending on the procedure. Drugs were administered intraperitoneally (i.p.) at a volume of 10 mL/kg. Experimental assessments were performed by an observer who was blinded to the treatment conditions. All procedures were conducted in accordance with the European Communities Council Directive of 22 September 2010 (2010/63/EU) and Polish legislation acts concerning animal experimentation and were approved by the II Local Ethics Committee by the Maj Institute of Pharmacology, Polish Academy of Sciences in Krakow (272/2019).
Drugs. MK-801 was purchased from Tocris Bioscience, Bristol, UK. MK-801 was dissolved in 0.9% NaCl. Compounds 15 and 18 were dissolved in 0.9% NaCl. All compounds were administered intraperitoneally (i.p.) in a volume of 10 mL/kg. Vehicle-treated animals received appropriate solvents. Vehicle was administered to animals in any case when drug administration was omitted (e.g., control or MK-801-treated groups).
The locomotor activity was recorded individually for each animal in the OPTO-M3 locomotor activity cages described above. Each cage was surrounded with an array of photocell beams. […] Mice were placed separately into activity cages for an acclimatization period of 30 min, then were injected i.p. with compound 15 (0.5, 1, 3 mg/kg) compound 18 (0.05, 0.1, 0.5, 1, 3 mg/kg. After a further 30 min, they were injected with saline (10 mL/kg). From this point on, the ambulation scores were measured for 60 min.

D2R [2] = target: T1, D2R (Homo sapiens, UniProt P14416); test: D2R functional assay, antagonist mode (cAMP, HEK293 cells); format: cell-based; parameters: expressed in transfected cells
T1 sequence (P14416 whole entry): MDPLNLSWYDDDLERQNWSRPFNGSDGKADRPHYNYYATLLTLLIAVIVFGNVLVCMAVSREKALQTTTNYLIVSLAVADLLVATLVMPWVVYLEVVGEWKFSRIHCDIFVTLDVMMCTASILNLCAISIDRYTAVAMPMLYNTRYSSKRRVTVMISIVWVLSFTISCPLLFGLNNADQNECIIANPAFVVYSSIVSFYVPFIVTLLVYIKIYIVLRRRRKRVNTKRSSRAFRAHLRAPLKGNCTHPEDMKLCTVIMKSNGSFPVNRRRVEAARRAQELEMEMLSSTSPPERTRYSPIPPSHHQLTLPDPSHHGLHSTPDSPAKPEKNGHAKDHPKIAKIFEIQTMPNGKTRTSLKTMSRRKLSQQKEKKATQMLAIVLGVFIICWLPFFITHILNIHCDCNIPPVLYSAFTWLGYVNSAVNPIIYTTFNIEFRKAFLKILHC
Method: The supernatant was aspirated, and the cell pellet was resuspended in stimulation buffer (1 × HBSS, 5 mM HEPES, 0.5 mM IBMX, 0.1% BSA).
The functional properties of compounds were evaluated using the LANCE Ultra cAMP Detection Kit (PerkinElmer). D2 receptors in HEK293 cells are coupled to Gi subtype and decreased cAMP production. […] Each compound was tested in triplicate at eight concentrations (10^−11–10^−4 M).
For quantification of cAMP levels, cells (5 µL) were incubated with 5 µL mixture of compounds (tested ligand and forskolin with 100 nM quinpirole for antagonist binding mode) for 30 min at room temperature in 384-well white opaque microtiter plate (PerkinElmer). After incubation, the reaction was stopped and cells were lysed by the addition of 10 µL working solution (5 µL Eu-cAMP and 5 µL ULight-anti-cAMP). The assay plate was incubated for 1 h at room temperature. Time-resolved fluorescence resonance energy transfer (TR-FRET) signal was detected by an Infinite M1000 Pro (Tecan) using instrument settings from the LANCE Ultra cAMP Detection Kit manual.

5-HT2AR = 5-HT2AR (Homo sapiens, UniProt P28223); test: Radioligand binding assay, [3H]-ketanserin displacement; parameters: host or cells: CHO-K1; membrane preparation; details: Table 1
Chain of 5-HT2AR (P28223 whole entry): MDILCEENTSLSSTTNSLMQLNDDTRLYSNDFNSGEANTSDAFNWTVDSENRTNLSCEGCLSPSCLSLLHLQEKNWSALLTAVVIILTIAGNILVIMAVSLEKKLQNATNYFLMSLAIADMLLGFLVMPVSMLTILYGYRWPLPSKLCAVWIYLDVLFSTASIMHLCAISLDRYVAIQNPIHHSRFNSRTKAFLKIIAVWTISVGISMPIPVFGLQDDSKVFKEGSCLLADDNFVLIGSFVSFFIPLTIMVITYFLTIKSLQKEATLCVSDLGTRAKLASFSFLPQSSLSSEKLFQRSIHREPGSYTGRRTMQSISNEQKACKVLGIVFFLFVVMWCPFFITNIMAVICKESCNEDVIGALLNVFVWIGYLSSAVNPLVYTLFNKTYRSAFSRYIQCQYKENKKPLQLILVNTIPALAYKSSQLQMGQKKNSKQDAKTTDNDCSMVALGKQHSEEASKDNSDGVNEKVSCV

5-HT6R = 5-HT6R (Homo sapiens, UniProt P50406); test: Radioligand binding assay, [3H]-LSD displacement
Chain of 5-HT6R (P50406 whole entry): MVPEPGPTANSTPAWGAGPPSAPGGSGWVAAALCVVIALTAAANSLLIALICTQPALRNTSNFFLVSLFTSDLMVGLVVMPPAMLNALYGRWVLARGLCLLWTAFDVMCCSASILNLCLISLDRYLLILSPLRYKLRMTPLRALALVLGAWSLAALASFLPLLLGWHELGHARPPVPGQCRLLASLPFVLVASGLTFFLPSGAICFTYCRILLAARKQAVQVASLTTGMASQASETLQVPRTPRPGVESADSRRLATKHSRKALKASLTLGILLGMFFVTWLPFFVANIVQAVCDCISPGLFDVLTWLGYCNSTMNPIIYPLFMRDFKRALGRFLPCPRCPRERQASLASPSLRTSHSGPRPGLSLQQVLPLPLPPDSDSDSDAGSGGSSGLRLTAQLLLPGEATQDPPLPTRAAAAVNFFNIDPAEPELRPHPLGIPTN

5-HT7R = 5-HT7R (Homo sapiens, UniProt P34969); test: Radioligand binding assay, [3H]-5-CT displacement
Chain of 5-HT7R (P34969 1-432): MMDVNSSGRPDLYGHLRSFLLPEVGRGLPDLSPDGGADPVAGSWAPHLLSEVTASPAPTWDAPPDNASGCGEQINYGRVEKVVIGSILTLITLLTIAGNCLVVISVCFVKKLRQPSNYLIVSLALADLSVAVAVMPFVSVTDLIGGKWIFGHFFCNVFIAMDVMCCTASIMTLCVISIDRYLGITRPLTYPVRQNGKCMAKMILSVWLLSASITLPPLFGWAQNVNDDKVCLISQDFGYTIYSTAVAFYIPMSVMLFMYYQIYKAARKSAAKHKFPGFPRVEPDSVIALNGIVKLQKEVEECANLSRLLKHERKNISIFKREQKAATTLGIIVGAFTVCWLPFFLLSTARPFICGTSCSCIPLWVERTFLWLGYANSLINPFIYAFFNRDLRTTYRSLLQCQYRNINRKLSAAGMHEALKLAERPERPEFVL

5-HT1AR = target: T2, 5-HT1AR (Homo sapiens, UniProt P08908); test: Radioligand binding assay, [3H]-8-OH-DPAT displacement
T2 sequence (P08908 1-422): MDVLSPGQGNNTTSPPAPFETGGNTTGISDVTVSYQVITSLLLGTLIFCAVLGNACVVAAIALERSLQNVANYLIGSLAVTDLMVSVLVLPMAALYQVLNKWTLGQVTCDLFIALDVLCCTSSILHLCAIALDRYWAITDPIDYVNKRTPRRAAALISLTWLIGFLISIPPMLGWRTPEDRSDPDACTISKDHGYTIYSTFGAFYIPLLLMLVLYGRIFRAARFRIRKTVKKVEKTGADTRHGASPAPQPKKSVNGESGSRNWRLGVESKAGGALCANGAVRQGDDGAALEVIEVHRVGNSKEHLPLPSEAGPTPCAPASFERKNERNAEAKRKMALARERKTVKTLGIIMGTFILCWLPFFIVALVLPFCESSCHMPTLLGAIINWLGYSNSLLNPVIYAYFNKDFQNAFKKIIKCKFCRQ

D2R [3] = target: T1, D2R; test: Radioligand binding assay, [3H]-raclopride displacement

Brc1cccc2c(CNCCc3c[nH]c4ccccc34)c[nH]c12 [Compound 18]
Metabolic Pathway, metabolite M1 [1]: hydroxylation hydroxylation | Metabolic Pathway, metabolite M2 [1]: hydroxylation hydroxylation | Ambulation Scores ± SEM (Male CD1 mice; 0.05 mg/kg): 113.6 ± 34.00 | Ambulation Scores ± SEM (Male CD1 mice; 0.1 mg/kg): 131.8 ± 19.50 | Ambulation Scores ± SEM (Male CD1 mice; 0.5 mg/kg): 116.7 ± 13.23 | Ambulation Scores ± SEM (Male CD1 mice; 1 mg/kg): 85.31 ± 15.86 | Ambulation Scores ± SEM (Male CD1 mice; 3 mg/kg): 87.79 ± 20.89 | effect on spontaneous locomotor activity in words (Male CD1 mice): did not influence the spontaneous locomotor activity of mice | Kb (D2R [2]): 167 nM | Ki (5-HT2AR; pKi 5-HT2A): 3980 nM | Ki (5-HT6R; Ki 5-HT6, Figure 8): 449 nM | Ki (5-HT6R; pKi 5-HT6, Table 1): 447 nM | Ki (5-HT7R): 1320 nM | Ki (5-HT1AR): 302 nM | Ki (D2R [3]; Ki D2, Figure 8): 55 nM | Ki (D2R [3]; pKi D2, Table 1): 55 nM

Brc1ccc2c(CNCCc3c[nH]c4ccccc34)c[nH]c2c1 [Compound 15]
Metabolic Pathway, metabolite M1 [1]: hydroxylation hydroxylation | Metabolic Pathway, metabolite M2 [1]: hydroxylation hydroxylation | Ambulation Scores ± SEM (Male CD1 mice; 0.5 mg/kg): 134.9 ± 11.13 | Ambulation Scores ± SEM (Male CD1 mice; 1 mg/kg): 124.7 ± 21.75 | Ambulation Scores ± SEM (Male CD1 mice; 3 mg/kg): 91.8 ± 24.61 | effect on spontaneous locomotor activity in words (Male CD1 mice): did not affect the locomotor activity of mice | Kb (D2R [2]; antagonistic mode, 100 nM quinpirole, read-out: D2 Kb): 109 nM | EC50 (D2R [2]; read-out: EC50 (D2 receptor, antagonistic function)): 109 nM | Ki (5-HT2AR; read-out: pKi 5-HT2A (converted)): 4070 nM | Ki (5-HT6R; Ki 5-HT6, Figure 8): 102 nM | Ki (5-HT6R; pKi 5-HT6, Table 1): 102 nM | Ki (5-HT7R): 4680 nM | Ki (5-HT1AR; pKi 5-HT1A, Table 1): 977 nM | Ki (D2R [3]; Ki D2, Figure 8): 290 nM | Ki (D2R [3]; pKi D2, Table 1): 288 nM
